Results on 22 compounds are retold here after patent EP2435433B1, “(DIHYDRO)IMIDAZOISO[5,1-A]QUINOLINES AS FSH RECEPTOR AGONISTS FOR THE TREATMENT OF FERTILITY DISORDERS” (Merck Sharp & Dohme B.V., priority 2009, dated 2010).

As a reminder, the EC50 is the concentration needed to bring the measured effect to its halfway point.

In the experiment the target is T1, human FSH receptor (Homo sapiens, UniProt P23945).
T1 construct: expressed in transfected cells; host or cells: Chinese Hamster Ovary (CHO) cells, stably transfected, cotransfected with CRE/promotor-firefly luciferase reporter
T1 sequence (P23945 18-695): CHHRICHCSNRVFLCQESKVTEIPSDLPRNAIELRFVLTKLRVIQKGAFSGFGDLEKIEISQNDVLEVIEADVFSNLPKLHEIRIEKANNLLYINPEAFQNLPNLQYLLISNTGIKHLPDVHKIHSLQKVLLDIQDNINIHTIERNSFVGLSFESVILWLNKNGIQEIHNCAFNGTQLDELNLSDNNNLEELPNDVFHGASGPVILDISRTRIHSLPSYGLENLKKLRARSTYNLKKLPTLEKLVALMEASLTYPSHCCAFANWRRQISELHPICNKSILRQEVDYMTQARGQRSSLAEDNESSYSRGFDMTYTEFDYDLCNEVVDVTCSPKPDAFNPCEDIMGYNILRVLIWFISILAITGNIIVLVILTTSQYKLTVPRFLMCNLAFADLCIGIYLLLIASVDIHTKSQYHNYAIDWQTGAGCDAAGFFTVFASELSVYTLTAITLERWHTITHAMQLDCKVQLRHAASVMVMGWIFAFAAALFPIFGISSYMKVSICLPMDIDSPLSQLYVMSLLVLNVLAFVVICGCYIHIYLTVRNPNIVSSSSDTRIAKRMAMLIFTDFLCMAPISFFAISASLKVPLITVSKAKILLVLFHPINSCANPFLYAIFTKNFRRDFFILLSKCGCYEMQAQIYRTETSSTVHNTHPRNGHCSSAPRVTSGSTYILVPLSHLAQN
Description: Agonistic activity of compounds at the human FSH receptor expressed in CHO cells, CRE/luciferase reporter (hFSHRago (CHO luc)). The conditions noted are these: CHO cells stably transfected with the human FSH receptor and CRE/firefly luciferase reporter; 4 hours of incubation; half-maximal stimulation relative to the compound's own maximal effect; read-out: hFSHRago (CHO luc) EC50. The format is cell-based. The text has this: The term EC50 means the concentration of the test compound that elicits half-maximal (50 %) stimulation compared to the compound's maximally attainable effect. The values can be determined e.g. in a cell line transfected with a FSH receptor gene and cotransfected with a cAMP responsive element/promoter directing the expression of a reporter gene. Values can be determined using a software program such as MathIQ (version 2.0, ID Business Solutions Limited).
Agonistic activity of the compounds at the human FSH receptor was determined in Chinese Hamster Ovary (CHO) cells stably transfected with the human FSH receptor and cotransfected with a cAMP responsive element (CRE)/promotor directing the expression of a firefly luciferase reporter gene. Binding of the compounds to the Gs protein-coupled FSH receptor will result in an increase of cAMP, which in turn will induce an increased transactivation of the luciferase reporter. Cells (7,500 cells/well of a 384 well plate) were incubated in Dulbecco' minimal essential F12 modified medium (Invitrogen), supplemented with 1 µg/ml bovine insulin, 5 µg/ml human apo-transferrin, 80 U/ml penicillin G and 80 µg/ml streptomycin with the test compounds (concentration between 0.0316 nM and 10.0 µM) in duplicate in a humidified atmosphere (95%) at 5-7% CO2 and 37°C. The final concentration of DMSO was 1%. After 4 hours of incubation, plates were allowed to adjust to room temperature for 1 hour. Then, Luclite (PerkinElmer) solution was added to the wells and cells were allowed to lyse for at least 1 hour at room temperature. Subsequently, luciferase activity was measured in a luminescence counter. The signal is expressed as counts per second (cps). The EC50 (concentration of the test compound that elicits half-maximal (50 %) luciferase stimulation compared to the compound's maximally attainable effect) and efficacy values (maximal effect of the test compound as percentage of the maximal effect of recombinant human FSH) of the compounds were determined using the software program MathIQ (version 2.0, ID Business Solutions Limited). EC50 data are indicated at the synthesis examples.
For orientation: In a reporter assay the amount or activity of a reporter protein is the signal.
With `COc1cc2c(cc1OC(C)C)-c1c(-c3cccs3)nc(C(=O)N3CC4CC(CN(C(C)=O)C4)C3)n1CC2` [Example 29c, 1-[7-(9-Isopropoxy-8-methoxy-1-thiophen-2-yl-5,6-dihydro-imidazo[5,1-a]isoquinoline-3-carbonyl)-3,7-diaza-bicyclo[3.3.1]non-3-yl]-ethanone], the EC50 is 21 nM.
The same measure for `COc1cc2c(cc1OC(C)C)-c1c(-c3cccs3)nc(C(=O)N3CC4CC(C3)CN(C(=O)C3CCC3)C4)n1CC2` [Example 29d, (7-Cyclobutanecarbonyl-3,7-diaza-bicyclo[3.3.1]non-3-yl)-(9-isopropoxy-8-methoxy-1-thiophen-2-yl-5,6-dihydro-imidazo[5,1-a]isoquinolin-3-yl)-methanone]: 5 nM; for `COc1cc2c(cc1OCCO)-c1c(-c3cccs3)nc(C(=O)N(C)C(C)(C)C)n1CC2` [Example 30c, 9-(2-Hydroxy-ethoxy)-8-methoxy-1-thiophen-2-yl-5,6-dihydro-imidazo[5,1-a]isoquinoline-3-carboxylic acid tert-butyl-methyl-amide]: 7 nM.
The same measure for `COc1cc2c(cc1OCCN=[N+]=[N-])-c1c(-c3cccs3)nc(C(=O)N(C)C(C)(C)C)n1CC2` [Example 30e, 9-(2-Azido-ethoxy)-8-methoxy-1-thiophen-2-yl-5,6-dihydro-imidazo[5,1-a]isoquinoline-3-carboxylic acid tert-butyl-methyl-amide]: 15 nM; for `COc1cc2c(cc1OCCN)-c1c(-c3cccs3)nc(C(=O)N(C)C(C)(C)C)n1CC2` [Example 31, 9-(2-Amino-ethoxy)-8-methoxy-1-thiophen-2-yl-5,6-dihydro-imidazo[5,1-a]isoquinoline-3-carboxylic acid tert-butyl-methyl-amide]: 94 nM; for `COc1cc2c(cc1OCCNC(C)=O)-c1c(-c3cccs3)nc(C(=O)N(C)C(C)(C)C)n1CC2` [Example 32, 9-(2-Acetylamino-ethoxy)-8-methoxy-1-thiophen-2-yl-5,6-dihydro-imidazo[5,1-a]isoquinoline-3-carboxylic acid tert-butyl-methyl-amide]: 559 nM.
As for `COC(=O)NCCOc1cc2c(cc1OC)CCn1c(C(=O)N(C)C(C)(C)C)nc(-c3cccs3)c1-2` [Example 33, {2-[3-(tert-Butyl-methyl-carbamoyl)-8-methoxy-1-thiophen-2-yl-5,6-dihydro-imidazo[5,1-a]isoquinolin-9-yloxy]-ethyl}-carbamic acid methyl ester], the EC50 was found to be 142 nM.
The same measure for `CCN(C(=O)c1nc(-c2cccs2)c2n1CCc1cc(OC)c(OCCO)cc1-2)C(C)(C)C` [Example 34b, 9-(2-Hydroxy-ethoxy)-8-methoxy-1-thiophen-2-yl-5,6-dihydro-imidazo[5,1-a]isoquinoline-3-carboxylic acid tert-butyl-ethyl-amide]: 3 nM.
With `COCOc1cc2c(cc1OC)CCn1c(C(=O)N(C)C(C)(C)C)nc(-c3cccs3)c1-2` [Example 35b, 8-Methoxy-9-methoxymethoxy-1-thiophen-2-yl-5,6-dihydro-imidazo[5,1-a]isoquinoline-3-carboxylic acid tert-butyl-methyl-amide], the EC50 worked out at 19 nM.
In the case of `COc1cc2c(cc1C=C(C)C)-c1c(-c3cccs3)nc(C(=O)N(C)C(C)(C)C)n1CC2` [Example 36c, 8-Methoxy-9-(2-methyl-propenyl)-1-thiophen-2-yl-5,6-dihydro-imidazo[5,1-a]isoquinoline-3-carboxylic acid tert-butyl-methyl-amide], the EC50 was found to be 2 nM.
Then `COc1cc2c(cc1CC(C)C)-c1c(-c3ncco3)nc(C(=O)N(C)C(C)(C)C)n1CC2` [Example 37f, 9-Isobutyl-8-methoxy-1-oxazol-2-yl-5,6-dihydro-imidazo[5,1-a]isoquinoline-3-carboxylic acid tert-butyl-methyl-amide], with 380 nM.
The same measure for `COc1cc2c(cc1CC(C)C)-c1c(-c3cncs3)nc(C(=O)N(C)C(C)(C)C)n1CC2` [Example 38, 9-Isobutyl-8-methoxy-1-thiazol-5-yl-5,6-dihydro-imidazo[5,1-a]isoquinoline-3-carboxylic acid tert-butyl-methyl-amide]: 13 nM; for `COc1cc2c(cc1C=C(F)F)-c1c(-c3cccs3)nc(C(=O)N(C)C(C)(C)C)n1CC2` [Example 39, 9-(2,2-Difluoro-vinyl)-8-methoxy-1-thiophen-2-yl-5,6-dihydro-imidazo[5,1-a]isoquinoline-3-carboxylic acid tert-butyl-methyl-amide]: 22 nM; for `CCOc1ccc2c(c1)CCn1c(C(=O)N(C)C(C)(C)C)nc(-c3cccs3)c1-2` [Example 40c, 8-Ethoxy-1-thiophen-2-yl-5,6-dihydro-imidazo[5,1-a]isoquinoline-3-carboxylic acid tert-butyl-methyl-amide]: 417 nM.
The same measure for `COc1cc2c(cc1CCC(C)(C)O)-c1c(-c3cccs3)nc(C(=O)N(C)C(C)(C)C)n1CC2` [Example 41c, 9-(3-Hydroxy-3-methyl-butyl)-8-methoxy-1-thiophen-2-yl-5,6-dihydro-imidazo[5,1-a]isoquinoline-3-carboxylic acid tert-butyl-methyl-amide]: 191 nM; for `COc1cc2c(cc1Oc1ccccc1)-c1c(-c3cccs3)nc(C(=O)N(C)C(C)(C)C)n1CC2` [Example 42b, 8-Methoxy-9-phenoxy-1-thiophen-2-yl-5,6-dihydro-imidazo[5,1-a]isoquinoline-3-carboxylic acid tert-butyl-methyl-amide]: 128 nM.
For the compound `COc1cccc(Oc2cc3c(cc2OC)CCn2c(C(=O)N(C)C(C)(C)C)nc(-c4cccs4)c2-3)c1` [Example 43b, 8-Methoxy-9-(3-methoxy-phenoxy)-1-thiophen-2-yl-5,6-dihydro-imidazo[5,1-a]isoquinoline-3-carboxylic acid tert-butyl-methyl-amide], the EC50 came to 447 nM.
The same measure for `COc1cc2c(cc1-c1cccnc1)-c1c(C(C)(C)C)nc(C(=O)N(C)C(C)(C)C)n1CC2` [Example 44e, 1-tert-Butyl-8-methoxy-9-pyridin-3-yl-5,6-dihydro-imidazo[5,1-a]isoquinoline-3-carboxylic acid tert-butyl-methyl-amide]: 33 nM.
The same measure for `COc1cc2c(cc1N1CCOCC1)-c1c(-c3cccs3)nc(C(=O)N(C)C(C)(C)C)n1CC2` [Example 45, 8-Methoxy-9-morpholin-4-yl-1-thiophen-2-yl-5,6-dihydro-imidazo[5,1-a]isoquinoline-3-carboxylic acid tert-butyl-methyl-amide]: 113 nM; for `COc1cc2c(cc1NC(=O)C(C)C)-c1c(-c3cccs3)nc(C(=O)N(C)C(C)(C)C)n1CC2` [Example 46, 9-Isobutyrylamino-8-methoxy-1-thiophen-2-yl-5,6-dihydro-imidazo[5,1-a]isoquinoline-3-carboxylic acid tert-butyl-methyl-amide]: 148 nM; for `COc1cc2c(cc1OC(C)C)-c1c(-c3cncs3)nc(C(=O)N(C)C(C)(C)C)n1CC2` [Example 47e, 9-Isopropoxy-8-methoxy-1-thiazol-5-yl-5,6-dihydro-imidazo[5,1-a]isoquinoline-3-carboxylic acid tert-butyl-methyl-amide]: 6 nM.
Regarding `COc1cc2c(c(F)c1CC(C)C)-c1c(-c3cccs3)nc(C(=O)N(C)C(C)(C)C)n1CC2` [Example 48j, 10-Fluoro-9-isobutyl-8-methoxy-1-thiophen-2-yl-5,6-dihydro-imidazo[5,1-a]isoquinoline-3-carboxylic acid tert-butyl-methyl-amide], the EC50 worked out at 7 nM.
